Toxic doses and inconclusive results are not listed. No stated cut-off is given here; in the data, active means T/C of 150% or more; inactive means T/C below 125%.
System: L1210 leukemia ip in BDF1 mice, survival T/C
Test: NCI In Vivo Anticancer Drug Screen. Data for tumor model L1210 Leukemia (intraperitoneal) in B6D2F1 (BDF1) mice
Conditions: endpoint: mean survival time, higher = longer survival
How it was run: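 Antitumor effect is assessed in tumor-bearing animals. Survival in the compound arm is compared with a vehicle-dosed control arm and expressed as their quotient.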

[1] = dose: 5.0 mg/kg/injection, schedule: Q01DX001 (ip), vehicle: saline
[2] = dose: 10.0 mg/kg/injection, schedule: Q01DX001 (ip), vehicle: saline
[3] = dose: 20.0 mg/kg/injection, schedule: Q01DX001 (ip), vehicle: saline
[4] = dose: 40.0 mg/kg/injection, schedule: Q01DX001 (ip), vehicle: saline
[5] = dose: 80.0 mg/kg/injection, schedule: Q01DX001 (ip), vehicle: saline
[6] = dose: 100.0 mg/kg/injection, schedule: Q01DX001 (ip), vehicle: saline

Measured: T/C

COc1cccc(CCCC(=O)O)c1OC
inactive: dose: 100.0 mg/kg/injection, schedule: Q04DX003 (ip), vehicle: gum acacia 99 % of control | dose: 200.0 mg/kg/injection, schedule: Q04DX003 (ip), vehicle: gum acacia 94 % of control | dose: 400.0 mg/kg/injection, schedule: Q04DX003 (ip), vehicle: gum acacia 96 % of control

N=c1ccn(CC(Cl)COc2ccccc2)cc1 (stereo not given)
inactive: [1] 103 % of control | [2] 105 % of control | [3] 105 % of control | [4] 100 % of control | [5] 105 % of control | [6] 101 % of control

CCCCCCCCCCc1cc2c([nH]1)C(=O)c1ccccc1C2=O
inactive: dose: 37.5 mg/kg/injection, schedule: Q01DX001 (ip), vehicle: Klucel (hydroxypropylcellulose) (HPC) 86 % of control | dose: 75.0 mg/kg/injection, schedule: Q01DX001 (ip), vehicle: Klucel (hydroxypropylcellulose) (HPC) 89 % of control

O=S1(=O)CC2=C1/C=C/CCCC2
inactive: dose: 5.0 mg/kg/injection, schedule: Q04DX002 (ip), vehicle: Klucel (hydroxypropylcellulose) (HPC) 90 % of control | [2] 102 % of control | dose: 10.0 mg/kg/injection, schedule: Q04DX002 (ip), vehicle: Klucel (hydroxypropylcellulose) (HPC) 96 % of control

C=C(Cl)C(=O)OCC
inactive: dose: 5.0 mg/kg/injection, schedule: Q01DX009 (ip), vehicle: saline 103 % of control | dose: 5.0 mg/kg/injection, schedule: Q04DX003 (ip), vehicle: saline with Tween-80 93 % of control | dose: 10.0 mg/kg/injection, schedule: Q01DX009 (ip), vehicle: saline 98 % of control | dose: 10.0 mg/kg/injection, schedule: Q04DX003 (ip), vehicle: saline with Tween-80 95 % of control | dose: 20.0 mg/kg/injection, schedule: Q01DX009 (ip), vehicle: saline 104 % of control | dose: 20.0 mg/kg/injection, schedule: Q04DX003 (ip), vehicle: saline with Tween-80 95 % of control

O=NN(CC(Cl)CN(N=O)C(=O)NC1CCCCC1)C(=O)NC1CCCCC1
inactive: dose: 8.0 mg/kg/injection, schedule: Q01DX001 (ip), vehicle: other 97 % of control | dose: 16.0 mg/kg/injection, schedule: Q01DX001 (ip), vehicle: other 108 % of control | dose: 31.0 mg/kg/injection, schedule: Q01DX001 (ip), vehicle: other 90 % of control | dose: 62.0 mg/kg/injection, schedule: Q01DX001 (ip), vehicle: other 100 % of control | dose: 125.0 mg/kg/injection, schedule: Q01DX001 (ip), vehicle: other 95 % of control | dose: 250.0 mg/kg/injection, schedule: Q01DX001 (ip), vehicle: other 92 % of control | dose: 500.0 mg/kg/injection, schedule: Q01DX001 (ip), vehicle: other 97 % of control | dose: 750.0 mg/kg/injection, schedule: Q01DX001 (ip), vehicle: other 102 % of control | dose: 1000.0 mg/kg/injection, schedule: Q01DX001 (ip), vehicle: other 102 % of control

CCOP(=O)(/C=C/NC1CCCCC1)OCC
inactive: dose: 50.0 mg/kg/injection, schedule: Q04DX003 (ip), vehicle: saline 90 % of control | [6] 109 % of control | dose: 100.0 mg/kg/injection, schedule: Q04DX003 (ip), vehicle: saline 89 % of control | dose: 200.0 mg/kg/injection, schedule: Q01DX001 (ip), vehicle: saline 114 % of control | dose: 200.0 mg/kg/injection, schedule: Q04DX003 (ip), vehicle: saline 101 % of control

O=C(O/C(=N\N1N=NC(c2ccccc2)C1c1ccccc1)c1ccccc1)c1ccccc1 (stereo not given)
inactive: dose: 100.0 mg/kg/injection, schedule: Q01DX001 (ip), vehicle: carboxymethylcellulose (CMC) 87 % of control | dose: 200.0 mg/kg/injection, schedule: Q01DX001 (ip), vehicle: carboxymethylcellulose (CMC) 89 % of control | dose: 400.0 mg/kg/injection, schedule: Q01DX001 (ip), vehicle: carboxymethylcellulose (CMC) 89 % of control

CCOC(=O)Nc1cccc([N+](=O)[O-])c1
inactive: dose: 100.0 mg/kg/injection, schedule: Q04DX003 (ip), vehicle: other 93 % of control | dose: 200.0 mg/kg/injection, schedule: Q04DX003 (ip), vehicle: other 102 % of control | dose: 400.0 mg/kg/injection, schedule: Q04DX003 (ip), vehicle: other 91 % of control

CC(C)OC(=O)c1ccc([N+](=O)[O-])cc1
inactive: dose: 100.0 mg/kg/injection, schedule: Q04DX002 (ip), vehicle: Klucel (hydroxypropylcellulose) (HPC) 95 % of control | dose: 200.0 mg/kg/injection, schedule: Q04DX002 (ip), vehicle: Klucel (hydroxypropylcellulose) (HPC) 110 % of control | dose: 400.0 mg/kg/injection, schedule: Q04DX002 (ip), vehicle: Klucel (hydroxypropylcellulose) (HPC) 95 % of control

CC(=O)c1cccc(NC(=O)Nc2ccc(F)c([N+](=O)[O-])c2)c1
inactive: dose: 100.0 mg/kg/injection, schedule: Q01DX009 (ip), vehicle: Klucel (hydroxypropylcellulose) (HPC) 95 % of control | dose: 200.0 mg/kg/injection, schedule: Q01DX009 (ip), vehicle: Klucel (hydroxypropylcellulose) (HPC) 96 % of control

O=C(SC(=S)NCCNC(=S)SC(=O)c1ccccc1)c1ccccc1
inactive: dose: 50.0 mg/kg/injection, schedule: Q04DX002 (ip), vehicle: saline with Tween-80 95 % of control | dose: 100.0 mg/kg/injection, schedule: Q04DX002 (ip), vehicle: saline with Tween-80 87 % of control | dose: 200.0 mg/kg/injection, schedule: Q04DX002 (ip), vehicle: saline with Tween-80 98 % of control

COc1cc(C[N+]23CC[N+](Cc4cc(OC)cc(OC)c4)(CC2)C3)cc(OC)c1
inactive: [1] 100 % of control | [2] 100 % of control | [3] 103 % of control | [4] 103 % of control | [5] 100 % of control

NC(N)=N/N=C/c1ccc[nH]1
inactive: dose: 15.0 mg/kg/injection, schedule: Q01DX Z (ip), vehicle: saline 94 % of control | dose: 30.0 mg/kg/injection, schedule: Q01DX Z (ip), vehicle: saline 99 % of control | dose: 60.0 mg/kg/injection, schedule: Q01DX Z (ip), vehicle: saline 96 % of control | dose: 120.0 mg/kg/injection, schedule: Q01DX Z (ip), vehicle: saline 91 % of control | dose: 120.0 mg/kg/injection, schedule: Q01DX Z (oral), vehicle: saline 105 % of control | dose: 240.0 mg/kg/injection, schedule: Q01DX Z (ip), vehicle: saline 93 % of control | dose: 240.0 mg/kg/injection, schedule: Q01DX Z (oral), vehicle: saline 106 % of control | dose: 480.0 mg/kg/injection, schedule: Q01DX Z (ip), vehicle: saline 98 % of control | dose: 480.0 mg/kg/injection, schedule: Q01DX Z (oral), vehicle: saline 103 % of control | dose: 960.0 mg/kg/injection, schedule: Q01DX Z (oral), vehicle: saline 103 % of control

CCN(CC)CCNCC(Cc1ccccc1)c1ccccc1 (stereo not given)
inactive: dose: 100.0 mg/kg/injection, schedule: Q04DX002 (ip), vehicle: saline 99 % of control | dose: 200.0 mg/kg/injection, schedule: Q04DX002 (ip), vehicle: saline 105 % of control

Source: PubChem BioAssay AID248 (DTP/NCI, 2004)
